Source: patent US12370143B2, “Compound or salt thereof and lipid particles” (FUJIFILM Corporation, priority 2018, dated 2025)

Columns and labels:
[1] = Encapsulation rate of siRNA in nucleic acid lipid particles (Luc2-siRNA); type: physicochemical; conditions: compound/DSPC/cholesterol/DMG-PEG2000 50/10/38.5/1.5
Method in brief: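 Encapsulation rate was calculated as (total − outer-phase siRNA)/total ×100. Total siRNA was quantified spectrophotometrically after lipid-dissolving ethanol precipitation, and unencapsulated siRNA by RiboGreen in TE (ex 485/em 535 nm). The particles were test lipid/DSPC/cholesterol/DMG-PEG2000 at 50/10/38.5/1.5, formed by microfluidic mixing with Luc2-siRNA at pH 4 and dialyzed against PBS.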

[2] = tested on: DMS273 cells constantly expressing Luc; experiment: Target reporter protein (Luc) knockdown in cell, reporter protein assay; type: cell-based; conditions: Homo sapiens, DMS-273; Luc2-siRNA lipid particles using the compound; siRNA 0.1 to 100 nmol/L; concentration at which Luc expression is knocked down to 50%; read-out: IC50
Method in brief: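 Nucleic acid lipid particles added at final 0.1 to 100 nmol/L to DMS273 human SCLC cells stably expressing Luc2, 24 hr exposure then 24 hr further culture after medium change. Luc quantified by Steady Glo luminescence after viable cell count; knockdown efficiency calculated and IC50 taken as concentration giving 50% Luc reduction.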

[3] = Particle size of nucleic acid lipid particles (Luc2-siRNA); type: physicochemical; conditions: compound/DSPC/cholesterol/DMG-PEG2000 50/10/38.5/1.5
Method in brief: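 Particle size was read by ELS-Z2 light scattering on nucleic acid lipid particles after dialysis against PBS. These were made by micromixing Luc2-siRNA (19.7 μmol/L, pH 4 acetate) with ethanolic lipids (test lipid/DSPC/cholesterol/DMG-PEG2000 50/10/38.5/1.5, 20 mmol/L) at 3:1 water:oil, siRNA/lipid 339 mol/mol.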

[4] = Particle size of lipid particles (no nucleic acid); type: physicochemical; conditions: lipid particles without nucleic acid; compound/DSPC/cholesterol/DMG-PEG2000 molar ratio 50/10/38.5/1.5; ELS-Z2
Procedure: The compounds described in Examples 1, 9, and 10,1,2-distearoyl-sn-glycero-3-phosphocholine (trade name: COATSOME® MC-8080; NOF corporation), cholesterol (trade name: Cholesterol HP; NIPPON FINE CHEMICAL CO., LTD.), and 1,2-dimyristoyl-rac-glycero-3-(methylpolyoxyethylene 2000) (hereinafter, called DMG-PEG2000) (trade name: SUNBRIGHT® GM-020; NOF corporation) were dissolved in ethanol at a molar ratio of 50/10/38.5/1.5 such that the total lipid concentration became 20 mmol/L, thereby obtaining an oil phase.
A 10 mmol/L acetate buffer having a pH of 4 was used as a water phase and mixed with the oil phase by a micromixer (see JP5288254B) using a syringe pump such that the volume ratio of water phase:oil phase became 6.7:3.3. The mixed solution was diluted 2× with a phosphate buffered saline (PBS), thereby obtaining a dispersion liquid of lipid particles. The dispersion liquid was dialyzed using a dialysis cassette (Slide-A-Lyzer G2, MWCO: 10 kD, Thermo Fisher Scientific) including PBS such that ethanol was removed, thereby obtaining lipid particles containing the compounds described in Examples 1, 9, and 10.
By using the dispersion liquid of lipid particles as it was, the particle size of the lipid particles was measured using a zeta potential/particle size measurement system ELS-Z2 (Otsuka Electronics Co., Ltd.).

Nucleic acid encapsulation rate [1] [%]	IC50 [2] [nM]	Particle size (nm) [3] [nm]	Particle size (nm) [4] [nm]	SMILES
84	13	66.4	145.9	CCCCC/C=C\C/C=C\CCCCCCCCN(CCCCCCCC/C=C\C/C=C\CCCCC)C(=O)OCCN(C)CCN(C)C [Example 1, 2-((2-(dimethylamino)ethyl)(methyl)amino)ethyl di((9Z,12Z)-octadeca-9,12-dien-1-yl)carbamate]
92	21	79.5	127.5	CCCCC/C=C\C/C=C\CCCCCCCCN(CCCCCCCC/C=C\C/C=C\CCCCC)C(=O)OCCNCCN [Example 9, 2-((2-aminoethyl)amino)ethyl di((9Z,12Z)-octadeca-9,12-dien-1-yl)carbamate]
80	–	159.9	111.2	CCCCCCCCCCCCCCCCN(CCCCCCCCCCCCCCCC)C(=O)OCCN(C)CCN(C)C [Example 10, 2-((2-(Dimethylamino)ethyl)(methyl)amino)ethyl dihexadecylcarbamate]
